We go through one substance from patent US20260345510A1, “MEMBRANE COATED NANOPARTICLES FOR DRUG DELIVERY” (Arizona Board Regents on Behalf of Arizona State University, priority 2022, published 2026).

In this assay the test system is PL-induced carotid atherosclerosis in the LCA. Nature of the assay: Plaque development in partially ligated LCA (long-term experiment). The settings on record: free drug counterpart, repeated doses, without photoactivation. In kind it is in vivo, mouse (ApoE−/−). From the text:
All animal experiments performed in this study have been approved by the Institutional Animal Care and Use Committee (IACUC) of Arizona State University, USA. Male ApoE^−/− mice (8-12 weeks old), purchased from The Jackson Laboratory, were subjected to the partial ligation (PL) procedure to induce inflammation and carotid atherosclerosis in the left carotid artery (LCA). All mice were fed a high-fat diet (Envigo #TD.88137) for 1 week prior to the PL procedure and continued to be fed the same diet until the time of euthanasia. […] For biodistribution analysis, MoNP-DiD was administered via retro-orbital injection to mice that underwent the PL 1 week prior. The arterial tissue (from carotid bifurcation to abdominal aorta) and organs were harvested 4 hours after the injection, and DiD intensity was quantified for each of the three individual zones within the arterial segments using fluorescent imaging. Subsequently, the left common CA was embedded in Tissue-Tek O.C.T. compound, cryosectioned, and stained with a CD31 antibody (R&D Systems #AF3628) and DAPI. For organ assessment, various tissues (kidney, lung, heart, gut, liver, and spleen) and plasma were homogenized, and the fluorescent intensity in homogenized tissues was measured. […] Serum samples isolated from the mice were analyzed to determine their lipid profile and metabolic panel. […]

For the substance Verteporfin [free VP], the plaque sizes result was “little-to-no effect on plaque sizes”.
